Assay results from patent publication EP0314302A2, “Herbicidal o-carbomethoxy-sulfonylureas” (E.I. DU PONT DE NEMOURS AND COMPANY, priority 1987, dated 1989).

Assays:
Loblolly pine = assay: Test 13 conifer seedlings, postemergence; assay type: in vivo; details: scale 0-100
Excerpt: Conifer species (Loblolly pine) seedlings were transplanted into 15-cm plastic pots filled with planting medium. Compound I was applied postemergence to the loblolly pine seedlings. The compound was formulated in a non-phytotoxic spray solvent. Plans were visually rated 240 days after treatment (DAT) and compared with appropriate controls. Injury ratings are based on the scale of 0 to 100, where 0 indicates no effect, 20 indicates minimal injury and 100 indicates complete kill.

Field bean = assay: Test 7 postemergence; assay type: in vivo; details: scale 0-100
Experimental: (§1) Individual 11.4-cm plastic pots filled with planting medium were seeded with rape, wild radish (Raphanus raphanistruna). tansy mustard (Descurainia pinnata), ball mustard (Neslia paniculata), black mustard (Brassica nigra), yellow mustard, brown mustard, lentils, safflower, flax, sunflower, peanut, vetch, alfalfa, field bean, pea, violet (Viola spp), Kochia (Kochia spp), Russian thistle (Salsola spp), Matricaria spp, groundsel (Senecio spp), shepherdspurse (Capsella bursa-pastoris), nightshade (Solanum spp), sowthistle (Sonchus spp), sugar beet, wheat, "Bonanza" barley and "Morex" barley, Kentucky bluegrass (Poa pratensis), red clover (Trifolium pratense), dandelion (Taraxacum spp) and buckhorn plantain (Plantago lanceolata).
(§2) Plants were treated postemergence with the compound formulated with a non-phytotoxic carrier. Plants were visually rated 18 days after treatment (DAT). Response ratings were based on the scale of 0 to 100 where 0 = no effect, 20 = minimal injury and 100 = complete control.

Onicutal mustard = assay: Test 7 postemergence; assay type: in vivo; details: scale 0-100
Experimental: as §1, §2

Peanut = assay: Test 7 postemergence; assay type: in vivo; details: scale 0-100
Experimental: as §1, §2

Safflower = assay: Test 7 postemergence; assay type: in vivo; details: scale 0-100
Experimental: as §1, §2

Wheat = assay: Test 7 postemergence; assay type: in vivo; details: scale 0-100
Experimental: as §1, §2

Brown mustard = assay: Test 7 postemergence; assay type: in vivo; details: scale 0-100
Experimental: as §1, §2

Pea = assay: Test 7 postemergence; assay type: in vivo; details: scale 0-100
Experimental: as §1, §2

Flax = assay: Test 7 postemergence; assay type: in vivo; details: scale 0-100
Experimental: as §1, §2

Morex barley = assay: Test 7 postemergence; assay type: in vivo; details: scale 0-100
Experimental: as §1, §2

Yellow mustard = assay: Test 7 postemergence; assay type: in vivo; details: scale 0-100
Experimental: as §1, §2

Sunflower = assay: Test 7 postemergence; assay type: in vivo; details: scale 0-100
Experimental: as §1, §2

Lentils = assay: Test 7 postemergence; assay type: in vivo; details: scale 0-100
Experimental: as §1, §2

Bonanza barley = assay: Test 7 postemergence; assay type: in vivo; details: scale 0-100
Experimental: as §1, §2

Alfalfa = assay: Test 7 postemergence; assay type: in vivo; details: scale 0-100
Experimental: as §1, §2

Rape = assay: Test 7 postemergence; assay type: in vivo; details: scale 0-100
Experimental: as §1, §2

Vetch = assay: Test 7 postemergence; assay type: in vivo; details: scale 0-100
Experimental: as §1, §2

Sugar beet = assay: Test 7 postemergence; assay type: in vivo; details: scale 0-100
Experimental: as §1, §2

Cirsium arvense = assay: Test 2 perennial weeds from rhizomes; assay type: in vivo; details: 0.5% v/v non-ionic surfactant, scale 0-100
Experimental: (§3) Rhizomes of Agropyron repens and Cirsium arvense were planted in 17.5-cm plastic pots and grown in the greenhouse for 5 months prior to herbicide application. Plants were 24 to 35 cm tall and releasing lateral buds at the time of treatment. Compound I was diluted in water containing 0.5% v/v non-ionic surfactant and applied to the plants. The degree of weed control was visually rated 36 days after application of the herbicide. Control ratings were based upon comparison to an untreated control using a scale of 0 to 100 where 0 indicated no effect and […] represented death of all foliar portions with no regrowth apparent.

Agropyron repens = assay: Test 2 perennial weeds from rhizomes; assay type: in vivo; details: 0.5% v/v non-ionic surfactant, scale 0-100
Experimental: as §3

Mikanis cordata = assay: Test 9 postemergence; assay type: in vivo, Mikania cordata; details: scale 0-100
Experimental: Plastic windowsill pots containing planting medium were seeded with bahiagrass, bindweed (Convolvulus spp), guinea grass (Panicum maximum), large crabgrass (Digitaria sanguinalis) and pigweed (Amaranthus spp). Individual 15-cm plastic pots contained sandbur (Cenchrus echinatus), Mikania cordata, Boston fern (Nephrolepis exalata), quackgrass (Agropyron repens), elephantgrass (Pennisetum purpureum) and sowthistle (Sonchus spp) plants.
Plants were treated postemergence with Compound I formulated in a non-phytotoxic solvent. Plants were visually rated 22 days after treatment (DAT). Injury and weed control ratings were based on the scale of 0 to 100 where 0 = no effect, 20 = minimal control and 100 = complete control.

Itchgrass = assay: Test 5 sugarcane injury and weed control, postemergence; assay type: in vivo, Rottboellia exaltata; details: scale 0-100
Experimental: Sugarcane (Saccharum spp.) cuttings which had been pre-sprouted were planted in 15-cm plastic pots. Narrowleaf panicum (Panicum maximum), large crabgrass (Digitaria sanguinalis), guineagrass (P. maximum) and itchgrass (Rottboellia exaltata) were seeded in individual 15-cm plastic pots.
The pots were treated postemergence when the plants had 3 to 4 leaves with 2 to 3 tillers with Compound I formulated in a non-phytotoxic carrier made up of acetone-humectant-water-surfactant (22:1:1:0.05 v/v). The degree of crop injury and weed control was visually rated 27 days after treatment (DAT). Plant injury ratings are based on the scale of 0 to 100 where 0 = no effect, 20 = minimal injury and 100 = complete control.

COC(=O)c1cccnc1S(=O)(=O)NC(=O)Nc1nc(OC)cc(OC)n1 [Compound I, 2-[[(4,6-dimethoxypyrimidin-2-yl)aminocarbonyl]aminosulfonyl]-3-pyridinecarboxylic acid, methyl ester]
95: Control ratings 36 DAT (Agropyron repens; 64 g/ha)
85: Control ratings 36 DAT (Agropyron repens; 16 g/ha)
0: Plant Injury Rating 240 DAT (Loblolly pine; 8 g/ha) | Plant Injury Rating 240 DAT (Loblolly pine; 16 g/ha) | Plant Injury Rating 240 DAT (Loblolly pine; 32 g/ha) | Plant Injury Rating 240 DAT (Loblolly pine; 64 g/ha) | Plant Injury Rating 240 DAT (Loblolly pine; 125 g/ha) | Plant Injury Rating 22 DAT (Mikanis cordata; 8 g/ha) | Plant Injury Rating 22 DAT (Mikanis cordata; 16 g/ha)
30: Plant Injury Rating 22 DAT (Mikanis cordata; 32 g/ha)
90: Plant Injury Rating 18 DAT (Morex barley; 16 g/ha) | Plant Injury Rating 18 DAT (Bonanza barley; 16 g/ha) | Control ratings 36 DAT (Agropyron repens; 32 g/ha)
80: Plant Injury Rating 18 DAT (Rape; 16 g/ha) | Plant Injury Rating 27 DAT (Itchgrass; 8 g/ha) | Plant Injury Rating 27 DAT (Itchgrass; 16 g/ha)
50: Control ratings 36 DAT (Cirsium arvense; 32 g/ha) | Control ratings 36 DAT (Cirsium arvense; 64 g/ha)
40: Control ratings 36 DAT (Cirsium arvense; 16 g/ha)
100: Plant Injury Rating 18 DAT (Field bean; 16 g/ha) | Plant Injury Rating 18 DAT (Field bean; 32 g/ha) | Plant Injury Rating 18 DAT (Onicutal mustard; 16 g/ha) | Plant Injury Rating 18 DAT (Onicutal mustard; 32 g/ha) | Plant Injury Rating 18 DAT (Peanut; 16 g/ha) | Plant Injury Rating 18 DAT (Peanut; 32 g/ha) | Plant Injury Rating 18 DAT (Safflower; 16 g/ha) | Plant Injury Rating 18 DAT (Safflower; 32 g/ha) | Plant Injury Rating 18 DAT (Wheat; 16 g/ha) | Plant Injury Rating 18 DAT (Wheat; 32 g/ha) | Plant Injury Rating 18 DAT (Brown mustard; 16 g/ha) | Plant Injury Rating 18 DAT (Brown mustard; 32 g/ha) | Plant Injury Rating 18 DAT (Pea; 16 g/ha) | Plant Injury Rating 18 DAT (Pea; 32 g/ha) | Plant Injury Rating 18 DAT (Flax; 16 g/ha) | Plant Injury Rating 18 DAT (Flax; 32 g/ha) | Plant Injury Rating 18 DAT (Morex barley; 32 g/ha) | Plant Injury Rating 18 DAT (Yellow mustard; 16 g/ha) | Plant Injury Rating 18 DAT (Yellow mustard; 32 g/ha) | Plant Injury Rating 18 DAT (Sunflower; 16 g/ha) | Plant Injury Rating 18 DAT (Sunflower; 32 g/ha) | Plant Injury Rating 18 DAT (Lentils; 16 g/ha) | Plant Injury Rating 18 DAT (Lentils; 32 g/ha) | Plant Injury Rating 18 DAT (Bonanza barley; 32 g/ha) | Plant Injury Rating 18 DAT (Alfalfa; 16 g/ha) | Plant Injury Rating 18 DAT (Alfalfa; 32 g/ha) | Plant Injury Rating 18 DAT (Rape; 32 g/ha) | Plant Injury Rating 18 DAT (Vetch; 16 g/ha) | Plant Injury Rating 18 DAT (Vetch; 32 g/ha) | Plant Injury Rating 18 DAT (Sugar beet; 16 g/ha) | Plant Injury Rating 18 DAT (Sugar beet; 32 g/ha) | Plant Injury Rating 27 DAT (Itchgrass; 32 g/ha) | Plant Injury Rating 27 DAT (Itchgrass; 64 g/ha)
